Values joined by “and” are separate entries in the source; they are usually repeats but may differ in a detail not shown here. Equal entries are not always repeated.
Target: Protein disulfide-isomerase (Homo sapiens) (UniProt P07237)
Experiment: PDI inhibitors, insulin turbidity readout, dose response, biochemical, absorbance, cherry-picked samples, set 2 (AID 624274)
Details: PDI insulin reduction turbidity, absorbance 650 nm

Protein disulfide-isomerase (Homo sapiens), sequence (P07237 whole entry, looked up): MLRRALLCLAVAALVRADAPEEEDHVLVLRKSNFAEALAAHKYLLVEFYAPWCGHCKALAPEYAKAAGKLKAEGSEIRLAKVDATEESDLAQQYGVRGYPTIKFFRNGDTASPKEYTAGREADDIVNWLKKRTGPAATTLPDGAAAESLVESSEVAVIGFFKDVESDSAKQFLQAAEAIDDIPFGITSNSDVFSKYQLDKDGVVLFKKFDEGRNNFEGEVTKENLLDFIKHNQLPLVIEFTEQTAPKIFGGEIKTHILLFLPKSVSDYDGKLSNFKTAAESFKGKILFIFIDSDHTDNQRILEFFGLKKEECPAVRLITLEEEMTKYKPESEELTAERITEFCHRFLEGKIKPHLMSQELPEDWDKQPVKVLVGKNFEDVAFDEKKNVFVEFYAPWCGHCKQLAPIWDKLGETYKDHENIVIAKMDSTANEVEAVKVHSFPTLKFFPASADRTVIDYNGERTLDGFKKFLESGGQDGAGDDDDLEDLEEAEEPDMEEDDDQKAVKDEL

Row | Structure (SMILES) | AC50
1 | O=C(c1c(O)cc(O)cc1O)C1c2c(cc(O)c3c2O[C@H](c2ccc(O)cc2)[C@@H](O)C3)OC1c1ccc(O)cc1 (stereo partly drawn) | 19.5 µM
2 | O=C1NC[C@H](Cc2ccc(O)cc2)N(CC2CCCCC2)C1=O | 19.5 µM
3 | COc1ccc2c(CC(=O)OCC(=O)N(C)c3c(N)n(Cc4ccccc4)c(=O)[nH]c3=O)coc2c1 | 5.45 µM
4 | CN(C)S(=O)(=O)c1ccc(Cl)c(NC(=O)CSc2nnnn2-c2ccc(O)cc2)c1 | 19.5 µM
5 | C[C@@H]1CN([C@@H](C)CO)C(=O)c2cc(NC(=O)Cc3cn(C)c4ccccc34)ccc2O[C@H]1CN(C)S(=O)(=O)c1ccc(F)cc1 | 2.08 µM
6 | O=c1c(OC2OC(CO)C(O)C(O)C2O)c(-c2ccc(O)c(O)c2)oc2cc(O)cc(O)c12 (stereo not drawn) | 8.92 µM
7 | COc1cc(-c2oc3cc(O)cc(O)c3c(=O)c2O[C@@H]2O[C@H](COC3O[C@@H](C)[C@H](O)[C@@H](O)[C@H]3O)[C@@H](O)[C@H](O)[C@H]2O)ccc1O (stereo partly drawn) | 7.96 µM
8 | COC1/C=C/C=C(\C)Cc2cc(O)c(Cl)c(c2)N(C)C(=O)CC(OC(=O)C(C)C)C2(C)OC2C(C)C2CC1(O)NC(=O)O2 (stereo not drawn) | 9.59 µM
9 | C[C@@H]1CN([C@@H](C)CO)C(=O)c2cccc(NS(C)(=O)=O)c2O[C@H]1CN(C)Cc1ccc(Oc2ccccc2)cc1 | 19.5 µM and 7.04 µM
10 | Cc1cccn2c(CN(C)C3CCCc4ccccc43)c(C(=O)N3CCOCC3)nc12 (stereo not drawn) | 19.5 µM
11 | C[C@H]1CN([C@@H](C)CO)C(=O)c2cccc(NS(C)(=O)=O)c2O[C@@H]1CN(C)Cc1ccc(Oc2ccccc2)cc1 | 19.5 µM
12 | COc1ccccc1N1CCN(C(=O)C(=O)N/N=C/c2cccc(O)c2)CC1 | 19.5 µM
13 | CCN1CC2(COC(=O)c3ccccc3N)CCC(OC)C34C5CC6C(OC)CC(O)(C5C6OC)C(O)(C(OC)C23)C14 (stereo not drawn) | 19.5 µM
14 | C[C@@H]1O[C@@H](O[C@H]2[C@H](O)[C@@H](O)[C@H](Oc3c(-c4ccc(O)c(O)c4)oc4cc(O)cc(O)c4c3=O)O[C@@H]2CO)[C@H](O)[C@H](O)[C@H]1O | 4.28 µM
15 | C[C@H](CO)N1C[C@H](C)[C@@H](CN(C)S(=O)(=O)c2ccc(F)cc2)Oc2ccc(NC(=O)Cc3cn(C)c4ccccc34)cc2C1=O | 19.5 µM
16 | C[C@@H]1O[C@@H](O[C@H]2[C@H](O)[C@@H](O)[C@H](Oc3c(-c4ccc(O)cc4)oc4cc(O)cc(O)c4c3=O)O[C@@H]2CO)[C@H](O)[C@H](O)[C@H]1O | 6.92 µM
17 | Cc1c(O)ccc2c(CN3CCN(C/C=C/c4ccccc4)CC3)cc(=O)oc12 | 19.5 µM
18 | O=C(/C=C/c1ccc(NC(=O)c2ccccc2-c2ccccc2C(=O)O)cc1)c1ccccc1 | 11.4 µM
19 | CCN1C(=O)C2C(c3ccccc3F)NC(Cc3ccc(O)cc3)(C(=O)OC)C2C1=O (stereo not drawn) | 10.2 µM
20 | NNC(=O)c1cc(-c2ccc(O)cc2)nc2ccc(Br)cc12 | 19.5 µM
21 | O=S(=O)(c1ccccc1)N1N=C(c2ccc(O)cc2)CC1c1ccco1 (stereo not drawn) | 19.5 µM
22 | O=c1c(O[C@H]2O[C@@H](CO)[C@H](O)[C@@H](O)[C@@H]2O)c(-c2ccc(O)cc2)oc2cc(O)cc(O)c12 | 0.0155 µM
23 | CCOC(=O)c1c(CNCCN(CC)CC)n(C)c2cc(Br)c(OC)cc12 | 0.376 µM
24 | CCSc1nnc([C@H](Cc2c[nH]c3ccccc23)NC(=O)OC(C)(C)C)o1 | 19.5 µM
25 | O=C1C[C@@H](c2ccc(O[C@@H]3O[C@H](CO)[C@@H](O)[C@H](O)[C@H]3O)cc2)Oc2cc(O)ccc21 | 15.6 µM
26 | C[C@@H]1O[C@@H](OC[C@H]2O[C@@H](Oc3c(-c4ccc(O)c(O)c4)oc4cc(O)cc(O)c4c3=O)[C@H](O)[C@@H](O)[C@@H]2O)[C@H](O)[C@H](O)[C@H]1O | 7.62 µM

Row | Structure (SMILES) | AC50
27 | O=C(c1ccco1)N1CCN(Cc2cc(=O)oc3cc(O)ccc23)CC1 | 19.5 µM
28 | Cc1noc(C)c1S(=O)(=O)Nc1ccc2c(c1)CC(=O)N([C@@H](C)CO)C[C@H](C)[C@H](CN(C)S(=O)(=O)c1ccc(F)cc1)O2 | 19.5 µM
29 | O=C(O)C1C(c2ccccc2)C(C(=O)Oc2ccc(O)cc2)C1c1ccccc1 (stereo not drawn) | 14.7 µM
30 | COc1ccc(N2CCN(CC(=O)c3ccc(O)c(C)c3O)CC2)cc1 | 19.5 µM
31 | C[C@H]1CN([C@@H](C)CO)C(=O)c2cc(NC(=O)Cc3cn(C)c4ccccc34)ccc2O[C@H]1CN(C)S(=O)(=O)c1ccc(F)cc1 | 19.5 µM
32 | O=C(NC(Cc1ccc(O)cc1)C(=O)N=Nc1c(O)[nH]c2ccccc12)c1ccccc1 (stereo not drawn) | 19.5 µM
33 | COc1ccc(C2c3ccc(O)cc3Oc3ncn(CCN4CCOCC4)c(=N)c32)cc1OC (stereo not drawn) | 15.5 µM
34 | CC(C)Sc1nnc([C@H](Cc2c[nH]c3ccccc23)NC(=O)OC(C)(C)C)o1 | 19.5 µM
35 | Cc1noc(C)c1S(=O)(=O)Nc1ccc2c(c1)CC(=O)N([C@H](C)CO)C[C@H](C)[C@H](CN(C)S(=O)(=O)c1ccc(F)cc1)O2 | 19.5 µM and 16.9 µM
36 | O=C1NC[C@H](Cc2ccccc2)N(C[C@H]2CCCN2C[C@H](Cc2ccccc2)N2C[C@H](Cc3ccc(O)cc3)N(CCc3ccccc3)C(=O)C2=O)C1=O | 6.5 µM
37 | O=c1c(O[C@@H]2O[C@H](CO)[C@@H](O)[C@H](O)[C@H]2O)c(-c2ccc(O)cc2)oc2cc(O)cc(O)c12 | 19 µM
38 | CCc1cc(OCCCCNCc2ccccc2)ccc1Cl | 10.6 µM
39 | C[C@H]1CN([C@@H](C)CO)C(=O)c2cc(NC(=O)Cc3cn(C)c4ccccc34)ccc2O[C@@H]1CN(C)S(=O)(=O)c1ccc(F)cc1 | 19.5 µM
40 | CC[C@]12c3[nH]c4cc(-c5ccco5)ccc4c3CCN1C(=O)[C@@H](CC(=O)NCc1ccc(OC)c(OC)c1)C[C@@H]2C(=O)N1CCN(C(=O)c2ccco2)CC1 | 4.25 µM
41 | C[C@H](CO)N1C[C@H](C)[C@H](CN(C)Cc2ccccc2)Oc2ccc(NC(=O)Nc3ccccc3)cc2CC1=O | 19.5 µM
42 | C[C@@H]1O[C@@H](OC[C@@H]2O[C@H](Oc3c(-c4ccc(O)cc4)oc4cc(O)cc(O)c4c3=O)[C@@H](O)[C@H](O)[C@H]2O)[C@H](O)[C@H](O)[C@H]1O | 3.51 µM
43 | O=C(CCC1CCCCC1)NCCN1C2=NC[C@H](Cc3ccc(O)cc3)N2C[C@H]1Cc1ccc(O)cc1 | 19.5 µM
44 | CC(C)(C)OC(=O)N[C@@H](Cc1c[nH]c2ccccc12)c1nnc(SCC(N)=O)o1 | 19.5 µM
45 | C[C@H](CO)N1C[C@H](C)[C@H](CN(C)S(=O)(=O)c2ccc(F)cc2)Oc2ccc(NC(=O)Cc3cn(C)c4ccccc34)cc2C1=O | 19.5 µM
46 | C[C@@H]1O[C@@H](Oc2c(-c3ccc(O)c(O)c3)oc3cc(O)cc(O)c3c2=O)[C@H](O)[C@H](O)[C@H]1O | 2.48 µM and 5.59 µM
47 | Cc1ccc2nc(N3CCN(Cc4nnnn4C4CCCC4)CC3)c(C#N)cc2c1 | 4.05 µM
48 | C[C@@H]1CN([C@H](C)CO)C(=O)c2cccc(NS(C)(=O)=O)c2O[C@H]1CN(C)Cc1ccc(Oc2ccccc2)cc1 | 18.8 µM
49 | Cc1noc(C)c1S(=O)(=O)Nc1ccc2c(c1)CC(=O)N([C@H](C)CO)C[C@H](C)[C@H](CN(C)S(=O)(=O)c1ccccc1)O2 | 19.5 µM
50 | CC[C@]12c3[nH]c4cc(-c5ccco5)ccc4c3CCN1C(=O)[C@@H](CC(=O)NCCCOC)C[C@@H]2C(=O)N1CCN(C(=O)c2ccco2)CC1 | 16.7 µM
51 | CC(=O)OC[C@H]1O[C@@H](Oc2cc(O)cc3oc(-c4ccc(O)cc4)cc(=O)c23)[C@H](O[C@@H]2O[C@@H](C)[C@H](O)[C@@H](O)[C@H]2O)[C@@H](O)[C@@H]1O | 19.5 µM
52 | Cc1noc(C)c1S(=O)(=O)Nc1ccc2c(c1)CC(=O)N([C@H](C)CO)C[C@H](C)[C@@H](CN(C)S(=O)(=O)c1ccc(F)cc1)O2 | 19.5 µM

Row | Structure (SMILES) | AC50
53 | COC(=O)CC1OCC=C2CN3CCC45C6=CC(=O)C(=O)C([N+](=O)[O-])=C6NC4C1C2CC35 (stereo not drawn) | 8.03 µM
54 | Cc1c(O)ccc2c(CC(=O)N[C@@H](Cc3c[nH]c4ccccc34)C(=O)O)cc(=O)oc12 | 6.76 µM
55 | C[C@H]1CN([C@@H](C)CO)C(=O)Cc2cc(NC(=O)Nc3ccccc3)ccc2O[C@H]1CN(C)Cc1ccccc1 | 10.3 µM
56 | Cc1c(O)ccc2c(CN3CCN(CCO)CC3)cc(=O)oc12 | 8.66 µM
57 | C[C@@H]1O[C@@H](Oc2c(-c3cc(O)c(O)c(O)c3)oc3cc(O)cc(O)c3c2=O)[C@H](O)[C@H](O)[C@H]1O | 9.8 µM
58 | CCOC(=O)c1c(CN2CCN(CCO)CC2)n(-c2ccccc2)c2cc(Br)c(O)cc12 | 0.61 µM
59 | C[C@H](CO)N1C[C@H](C)[C@@H](CN(C)Cc2ccc(Oc3ccccc3)cc2)Oc2c(NS(C)(=O)=O)cccc2C1=O | 19.5 µM
60 | Cc1n[nH]c(=O)c2c(NC(=O)CSc3nnnn3-c3ccc(O)cc3)oc(C)c12 | 19.5 µM
61 | CCN1C[C@]2(COC(=O)c3ccccc3N)CC[C@H](OC)C34[C@@H]5C[C@H]6[C@H](OC)[C@@H]5[C@](O)(C[C@@H]6OC)[C@@](O)([C@H]13)[C@@H](OC)[C@@H]42 | 19.5 µM
62 | Cc1noc(C)c1S(=O)(=O)Nc1ccc2c(c1)CC(=O)N([C@@H](C)CO)C[C@@H](C)[C@H](CN(C)S(=O)(=O)c1ccc(F)cc1)O2 | 19.5 µM
63 | Cc1ccc(S(=O)(=O)CCC(=O)c2ccc(O)cc2O)cc1 | 15.6 µM
64 | COc1cc2cc(C(=O)N3CC(COS(C)(=O)=O)c4ccc(O)cc43)[nH]c2c(OC)c1OC (stereo not drawn) | 18 µM
65 | C/C=C(\C)C(=O)NCCN1C2=NC[C@H](Cc3ccc(O)cc3)N2C[C@H]1Cc1ccc(O)cc1 | 15.4 µM
66 | C[C@@H]1O[C@@H](O[C@@H]2C(=O)c3c(O)cc(O)cc3O[C@H]2c2ccc(O)c(O)c2)[C@H](O)[C@H](O)[C@H]1O | 10.2 µM
67 | CCOc1cc(N2CCOCC2)c(OCC)cc1NC(=O)COC(=O)[C@H](Cc1c[nH]c2ccccc12)NC(C)=O | 19.5 µM
68 | CN(C)C(=O)CSc1nnc([C@H](Cc2c[nH]c3ccccc23)NC(=O)OC(C)(C)C)o1 | 19.5 µM
69 | CCOC(=O)C1(CCOc2ccccc2)CCN(Cc2cc(OC)c(O)cc2Cl)CC1 | 6.03 µM
70 | CCOC(=O)C1(CCOc2ccccc2)CCN(Cc2ccc(O)c(Cl)c2)CC1 | 0.599 µM
71 | COc1cccc(NS(=O)(=O)c2ccc3c(c2)C2C=CCC2C(c2ccc(C(=O)O)cc2)N3)c1 (stereo not drawn) | 15.8 µM
72 | Oc1ccc(/C=C/c2nc(-c3ccccc3O)n(-c3ccccc3)n2)cc1 | 18.8 µM
73 | CC(Cc1ccccc1Sc1ccccc1O)N(C)C (stereo not drawn) | 15.9 µM
74 | C[C@H](CO)N1C[C@H](C)[C@@H](CN(C)S(=O)(=O)c2ccccc2)Oc2ccc(NC(=O)Cc3cn(C)c4ccccc34)cc2C1=O | 0.125 µM
75 | COc1cccc2c1C(=O)c1c(O)c3c(c(O)c1C2=O)CC(O)(C(C)=NO)CC3OC1CC(N)C(O)C(C)O1 (stereo not drawn) | 16.9 µM
76 | Cc1cc(O)cc2c1C1CCC3(C)C(=O)CCC3C1C=C2 (stereo not drawn) | 19.5 µM
77 | Cc1c(-n2cc(C(=O)c3ccccc3O)cc(C#N)c2=O)c(=O)n(-c2ccccc2)n1C | 5.89 µM
78 | COc1ccc(/C=C2\CN(Cc3ccccc3)C/C(=C\c3ccc(OC)c(O)c3)C2=O)cc1O | 2.98 µM

— PubChem BioAssay AID624274 (Broad Institute, 2012)
